Several values for one entry are separate records, joined by “and”; a condition that tells them apart may be missing. Equal entries are not always repeated.
Columns and labels:
[1] = tested on: patients with a diagnosis of narcolepsy with cataplexy; assay: Phase 2, double-blind, randomized, placebo-controlled, crossover, multicenter trial of reboxetine in patients with narcolepsy; format: in vivo, human
Description: A Phase 2, double-blind, randomized, placebo-controlled, crossover, multicenter trial of reboxetine was carried out in patients with narcolepsy. A total of 21 patients with a diagnosis of narcolepsy with cataplexy were treated for 2 weeks with reboxetine or with placebo, followed by a crossover to the other treatment after a 1-week down-titration and washout period. Reboxetine was administered orally twice daily, with a total daily dose of 8 mg for Week 1 which was escalated to 10 mg for Week 2. Patients were randomized in a 1:1 ratio either to treatment with reboxetine followed by placebo (sequence 1), or to treatment with placebo followed by reboxetine (sequence 2). The average number of cataplexy attacks at baseline was 30. Key assessments were made daily using an electronic diary. The prespecified primary endpoint was the change in the weekly number of cataplexy attacks, averaged over the 2-week treatment period (overall treatment effect). Secondary endpoints included changes in the number of inadvertent naps, cognition, and Epworth Sleepiness Scale. Cognition was assessed using the Ability to Concentrate item of the Narcolepsy Symptom Assessment Questionnaire, a patient reported outcome measure. This item is rated on 5-point scale (1=very good to 5=very poor). All analyses were conducted on an intent-to-treat basis.

[2] = tested on: patient diagnosed as suffering from narcolepsy with cataplexy; assay: Single-patient examples: reboxetine 5 mg at 8 am and 5 mg at 1 pm for three weeks in narcolepsy with cataplexy; format: in vivo, human
Description: A person is diagnosed as suffering from narcolepsy with cataplexy. They are given reboxetine and instructed to take 5 mg of reboxetine at 8 am and 5 mg of reboxetine at 1 pm for three weeks. The patient is evaluated prior to treatment, and weekly to determine the MWT score, the number of cataplexy attacks, the PGI-C score, the HAM-D score, the ESS score, the NSAQ score, and the ability to concentrate on the NSAQ. After one week of treatment, the number of cataplexy attacks have decreased by 10-30%.
A person is diagnosed as suffering from narcolepsy with cataplexy. They are given reboxetine and instructed to take 5 mg of reboxetine at 8 am and 5 mg of reboxetine at 1 pm for three weeks. The patient is evaluated prior to treatment, and weekly to determine the MWT score, the number of cataplexy attacks, the PGI-C score, the HAM-D score, the ESS score, the NSAQ score, and the ability to concentrate on the NSAQ. After one week of treatment, the number of cataplexy attacks have decreased by 30-60%.
A person is diagnosed as suffering from narcolepsy with cataplexy. They are given reboxetine and instructed to take 5 mg of reboxetine at 8 am and 5 mg of reboxetine at 1 pm for three weeks. The patient is evaluated prior to treatment, and weekly to determine the MWT score, the number of cataplexy attacks, the PGI-C score, the HAM-D score, the ESS score, the NSAQ score, and the ability to concentrate on the NSAQ. After one week of treatment, the number of cataplexy attacks have decreased by 60-100%.
A person is diagnosed as suffering from narcolepsy with cataplexy. They are given reboxetine and instructed to take 5 mg of reboxetine at 8 am and 5 mg of reboxetine at 1 pm for three weeks. The patient is evaluated prior to treatment, and weekly to determine the MWT score, the number of cataplexy attacks, the PGI-C score, the HAM-D score, the ESS score, the NSAQ score, and the ability to concentrate on the NSAQ. After one week of treatment, the ESS score has decreased by 10-30%.
A person is diagnosed as suffering from narcolepsy with cataplexy. They are given reboxetine and instructed to take 5 mg of reboxetine at 8 am and 5 mg of reboxetine at 1 pm for three weeks. The patient is evaluated prior to treatment, and weekly to determine the MWT score, the number of cataplexy attacks, the PGI-C score, the HAM-D score, the ESS score, the NSAQ score, and the ability to concentrate on the NSAQ. After one week of treatment, the ESS score has decreased by 30-60%.
A person is diagnosed as suffering from narcolepsy with cataplexy. They are given reboxetine and instructed to take 5 mg of reboxetine at 8 am and 5 mg of reboxetine at 1 pm for three weeks. The patient is evaluated prior to treatment, and weekly to determine the MWT score, the number of cataplexy attacks, the PGI-C score, the HAM-D score, the ESS score, the NSAQ score, and the ability to concentrate on the NSAQ. After one week of treatment, the ESS score has decreased by 60-100%.
A person is diagnosed as suffering from narcolepsy with cataplexy. They are given reboxetine and instructed to take 5 mg of reboxetine at 8 am and 5 mg of reboxetine at 1 pm for three weeks. The patient is evaluated prior to treatment, and weekly to determine the MWT score, the number of cataplexy attacks, the PGI-C score, the HAM-D score, the ESS score, the NSAQ score, and the ability to concentrate on the NSAQ. After one week of treatment, the MWT score has decreased by 10-30%.
A person is diagnosed as suffering from narcolepsy with cataplexy. They are given reboxetine and instructed to take 5 mg of reboxetine at 8 am and 5 mg of reboxetine at 1 pm for three weeks. The patient is evaluated prior to treatment, and weekly to determine the MWT score, the number of cataplexy attacks, the PGI-C score, the HAM-D score, the ESS score, the NSAQ score, and the ability to concentrate on the NSAQ. After one week of treatment, the MWT score has decreased by 30-60%. […]

[3] = human patients; without controlled release coating; cited from earlier work

Compound: CCOc1ccccc1OC(c1ccccc1)C1CNCCO1 (centres unmarked) [reboxetine]
- patients with an ability to concentrate that was good to very good (Ability to Concentrate item of the NSAQ) ([1]; Week 1, p=0.007 vs placebo): 38.1%
- mean reduction from baseline in cataplexy attacks ([1]; Week 2): 48.7%
- mean reduction of cataplexy attacks per week ([1]; Week 2, baseline average 30 attacks, p=0.002 vs placebo): 14.6 cataplexy attacks per week
- mean reduction from baseline in the average weekly number of inadvertent naps ([1]; Week 2, p<0.001 vs placebo, FIG. 5): 31.8%
- proportion of patients achieving a 50% or greater reduction in the weekly number of cataplexy attacks ([1]; Week 2, p=0.003 vs placebo, FIG. 2): 76.2%
- proportion of patients achieving a 75% or greater reduction in the weekly number of cataplexy attacks ([1]; Week 2, p=0.018 vs placebo, FIG. 3): 42.9%
- mean reduction from baseline in cataplexy attacks ([1]; after 1-week treatment): 43.3%
- mean reduction of cataplexy attacks ([1]; after 1-week treatment, p<0.001 vs placebo): 13.0 cataplexy attacks
- patients with reductions in hypnagogic hallucinations ([1]; as compared to placebo, FIG. 9): greater proportion of patients with reductions
- patients with reductions in sleep paralysis episodes ([1]; as compared to placebo, FIG. 9): greater proportion of patients with reductions
- patients with an ability to concentrate that was good to very good (Ability to Concentrate item of the NSAQ) ([1]; end of the 2-week treatment period, 0% at baseline): 42.9%
- discontinuations due to adverse events ([1]; human, in vivo): no discontinuations due to adverse events
- most commonly reported adverse events ([1]; human, in vivo): anxiety, constipation, and insomnia
- safety and tolerability ([1]; human, in vivo): safe and well tolerated
- serious adverse events ([1]; human, in vivo): no serious adverse events
- reduction in the Epworth Sleepiness Scale (ESS) score from baseline ([1]; p=0.003 vs placebo, FIG. 4): 6.0
- patients reporting improved sleep quality ([1]; p=0.007 vs placebo, FIG. 9): 45.0%
- patients with 50% or greater reduction in inadvertent naps ([1]; p=0.036 vs placebo, FIG. 6): 38.1%
- patients reporting a reduction in the number of awakenings at night ([1]; p=0.044 vs placebo, FIG. 9): 30.0%
- overall percentage of patients experiencing adverse events ([1]; placebo 40.0%): 42.9%
- reduction from baseline in the mean weekly number of cataplexy attacks, averaged for the 2-week treatment period (overall treatment effect), primary endpoint ([1]; vs placebo, p<0.001, 8 mg/day Week 1, 10 mg/day Week 2, oral twice daily, FIG. 1): highly statistically significant reduction
- decrease in ESS score ([2]; after one week of treatment): 10-30% and 30-60% and 60-100%
- decrease in MWT score ([2]; after one week of treatment): 10-30% and 30-60% and 60-100%
- decrease in number of cataplexy attacks ([2]; after one week of treatment): 10-30% and 30-60% and 60-100%
- decrease in ESS score ([2]; after three weeks of treatment): 10-30% and 30-60% and 60-100%
- decrease in HAM-D score ([2]; after three weeks of treatment): 10-30% and 30-60% and 60-100%
- decrease in MWT score ([2]; after three weeks of treatment): 10-30% and 30-60% and 60-100%
- decrease in number of cataplexy attacks ([2]; after three weeks of treatment): 10-30% and 30-60% and 60-100%
- time to reach a maximum plasma concentration [3]: 2 to 4 h

Reference: US12115165B2, “Use of reboxetine to treat narcolepsy” (AXSOME THERAPEUTICS, INC., priority 2018, dated 2024)
